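Method: 48-hour compound exposure of cells in 96-well plates, five concentrations, linear interpolation of endpoints. At the GI50, growth is halved.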 The source made the active and inactive calls. No stated cut-off is given here; in the data, active = GI50 up to about 1.1 µM and inactive = higher.
Key:
Assay in all cases: inhibition of tumour cell growth, NCI panel, 48 h
786-0 = system: 786-0
HOP-62 = system: HOP-62
Hs-578T = system: Hs-578T
IGROV-1 = system: IGROV-1
K562 = system: K562
KM12 = system: KM12
LOX IMVI = system: LOX IMVI
M14 = system: M14
MDA-MB-231 = system: MDA-MB-231
MOLT-4 = system: MOLT-4
NCI-H522 = system: NCI-H522
PC-3 = system: PC-3
SK-MEL-28 = system: SK-MEL-28
SK-OV-3 = system: SK-OV-3
SN12C = system: SN12C
SNB-19 = system: SNB-19
SNB-75 = system: SNB-75
T47D = system: T47D
UO-31 = system: UO-31
TK-10 = system: TK-10

Measured: GI50

COc1ccc(/C=C/C(=O)CC(=O)/C=C/c2ccc(OC)cc2)cc1
inactive: 786-0 30.8 µM | HOP-62 > 100 µM | Hs-578T 36.4 µM | IGROV-1 > 100 µM | K562 32.7 µM | KM12 > 100 µM | LOX IMVI 1.4 µM | M14 77.8 µM | MDA-MB-231 51.4 µM | MOLT-4 28 µM | NCI-H522 7.94 µM | PC-3 19.9 µM | SK-MEL-28 36.4 µM | SK-OV-3 > 100 µM | SN12C 61.5 µM | SNB-19 89.9 µM | SNB-75 > 100 µM | T47D > 100 µM | UO-31 34.8 µM

O=C1NC(=S)N/C1=C\c1ccc(Cl)cc1
inactive: 786-0 > 100 µM | HOP-62 > 100 µM | Hs-578T 50.4 µM | IGROV-1 > 100 µM | KM12 89.7 µM | LOX IMVI > 100 µM | M14 > 100 µM | MDA-MB-231 > 100 µM | MOLT-4 80.2 µM | NCI-H522 > 100 µM | PC-3 > 100 µM | SK-MEL-28 > 100 µM | SK-OV-3 > 100 µM | SN12C > 100 µM | SNB-19 > 100 µM | SNB-75 > 100 µM | T47D 42.5 µM | TK-10 > 100 µM | UO-31 53.7 µM

CC1(CC2=C(C(=O)NCCO[Si](C)(C)C(C)(C)C)C3(OCCO3)C2=O)OCCO1
inactive: 786-0 > 100 µM | HOP-62 > 100 µM | Hs-578T > 100 µM | IGROV-1 92.7 µM | KM12 > 100 µM | LOX IMVI 57.5 µM | M14 > 100 µM | MDA-MB-231 > 100 µM | MOLT-4 61.1 µM | NCI-H522 28.4 µM | PC-3 > 100 µM | SK-MEL-28 > 100 µM | SK-OV-3 > 100 µM | SN12C > 100 µM | SNB-19 > 100 µM | SNB-75 36.5 µM | T47D 59.8 µM | TK-10 > 100 µM | UO-31 > 100 µM

CCC(C)NC(=S)N/N=C(\C)c1nc2cccnc2[nH]1 (configuration not stated)
inactive: 786-0 13.6 µM | HOP-62 7.78 µM | Hs-578T 19.3 µM | IGROV-1 12.2 µM | K562 2.24 µM | KM12 15.9 µM | LOX IMVI 10.9 µM | M14 12.7 µM | MDA-MB-231 6.95 µM | MOLT-4 3.6 µM | NCI-H522 7.87 µM | PC-3 8.85 µM | SK-MEL-28 33.9 µM | SK-OV-3 10.3 µM | SN12C 21.6 µM | SNB-19 32.4 µM | SNB-75 48.5 µM | T47D 2.1 µM | TK-10 12.3 µM | UO-31 2.32 µM

CC1=CC(=O)/C(=C/Nc2nc(-c3ccc([N+](=O)[O-])cc3)cs2)C(=O)O1
inactive: 786-0 > 100 µM | HOP-62 > 100 µM | Hs-578T > 100 µM | IGROV-1 > 100 µM | K562 > 100 µM | KM12 > 100 µM | LOX IMVI > 100 µM | M14 > 100 µM | MDA-MB-231 > 100 µM | MOLT-4 61.4 µM | NCI-H522 31.6 µM | PC-3 46.5 µM | SK-OV-3 > 100 µM | SN12C > 100 µM | SNB-19 86.5 µM | SNB-75 > 100 µM | T47D > 100 µM | TK-10 > 100 µM | UO-31 > 100 µM

O=C(Cc1nc2ccccc2[nH]c1=O)c1c[nH]c2ccccc12
inactive: 786-0 13.9 µM | HOP-62 21 µM | Hs-578T 49 µM | IGROV-1 20.3 µM | K562 6.07 µM | KM12 5.77 µM | LOX IMVI 13.7 µM | M14 15.3 µM | MDA-MB-231 19.1 µM | MOLT-4 6.01 µM | NCI-H522 14.8 µM | PC-3 10.5 µM | SK-OV-3 18.1 µM | SN12C 13.8 µM | SNB-19 25.8 µM | SNB-75 25.1 µM | T47D 12.2 µM | TK-10 7.57 µM | UO-31 11.9 µM

COc1ccc(C(=O)c2ccc(-n3cc(/C=C/[N+](=O)[O-])c4ccccc43)cc2)cc1
inactive: 786-0 3.52 µM | HOP-62 16.1 µM | Hs-578T 7.57 µM | IGROV-1 10.8 µM | K562 6.53 µM | KM12 20.7 µM | LOX IMVI 6.55 µM | M14 29 µM | MDA-MB-231 19.3 µM | MOLT-4 4.81 µM | NCI-H522 15.4 µM | PC-3 18.8 µM | SK-MEL-28 28.1 µM | SK-OV-3 23.6 µM | SN12C 16.8 µM | SNB-19 30.2 µM | SNB-75 91 µM | T47D 2.07 µM | TK-10 6.3 µM | UO-31 19.5 µM

O=C(Nc1nc2ncn(CCOC(=O)c3ccccc3)c2c(=O)[nH]1)c1ccccc1
inactive: 786-0 15.8 µM | HOP-62 20.4 µM | Hs-578T 13.1 µM | IGROV-1 21 µM | K562 3.05 µM | KM12 3.34 µM | LOX IMVI 5.92 µM | M14 15.3 µM | MDA-MB-231 3.79 µM | MOLT-4 6.64 µM | NCI-H522 2.75 µM | PC-3 47.2 µM | SK-MEL-28 50.7 µM | SK-OV-3 > 50.7 µM | SN12C 11.8 µM | SNB-19 17.3 µM | SNB-75 18.9 µM | T47D 28.9 µM | TK-10 > 100 µM | UO-31 51.9 µM

CSc1c(C#N)c(O)nc(N)c1C(=O)Nc1ccc(C)cc1
inactive: 786-0 > 100 µM | Hs-578T > 100 µM | K562 > 100 µM | KM12 > 100 µM | LOX IMVI > 100 µM | M14 > 100 µM | MDA-MB-231 > 100 µM | MOLT-4 > 100 µM | NCI-H522 71.9 µM | PC-3 > 100 µM | SK-MEL-28 > 100 µM | SK-OV-3 > 100 µM | SN12C > 100 µM | SNB-19 > 100 µM | SNB-75 > 100 µM | T47D > 100 µM | TK-10 > 100 µM | UO-31 31.4 µM

N#CCCNCCN(CCN(C(=O)Nc1ccccc1)c1ccccc1)C(=O)Nc1ccccc1
inactive: 786-0 37.1 µM | HOP-62 65.9 µM | Hs-578T 59.2 µM | IGROV-1 50.4 µM | K562 67 µM | LOX IMVI 37.6 µM | M14 21.1 µM | MDA-MB-231 > 100 µM | MOLT-4 39.4 µM | NCI-H522 24.8 µM | PC-3 57.3 µM | SK-MEL-28 18.7 µM | SK-OV-3 > 100 µM | SN12C 78.9 µM | SNB-19 83.2 µM | SNB-75 25.8 µM | T47D 41.5 µM | TK-10 29.5 µM | UO-31 26.4 µM

Source: ChEMBL document CHEMBL1201862, “PubChem BioAssay data set” (2004)
